We go through one compound from article PMC12540828, “Fexofenadine protects against osteoarthritis by targeting Smad2 and STAT1 to enhance anabolism and binding cPLA2 to inhibit catabolism” (Cell Death Discovery, 2025).

Each structure is given as a SMILES string.

For one assay, the target named is T1, cPLA2 (Homo sapiens, UniProt P47712).
T1 construct: gene PLA2G4A; endogenous, chondrocyte lysate, read by Western blot
T1 sequence (P47712 1-749): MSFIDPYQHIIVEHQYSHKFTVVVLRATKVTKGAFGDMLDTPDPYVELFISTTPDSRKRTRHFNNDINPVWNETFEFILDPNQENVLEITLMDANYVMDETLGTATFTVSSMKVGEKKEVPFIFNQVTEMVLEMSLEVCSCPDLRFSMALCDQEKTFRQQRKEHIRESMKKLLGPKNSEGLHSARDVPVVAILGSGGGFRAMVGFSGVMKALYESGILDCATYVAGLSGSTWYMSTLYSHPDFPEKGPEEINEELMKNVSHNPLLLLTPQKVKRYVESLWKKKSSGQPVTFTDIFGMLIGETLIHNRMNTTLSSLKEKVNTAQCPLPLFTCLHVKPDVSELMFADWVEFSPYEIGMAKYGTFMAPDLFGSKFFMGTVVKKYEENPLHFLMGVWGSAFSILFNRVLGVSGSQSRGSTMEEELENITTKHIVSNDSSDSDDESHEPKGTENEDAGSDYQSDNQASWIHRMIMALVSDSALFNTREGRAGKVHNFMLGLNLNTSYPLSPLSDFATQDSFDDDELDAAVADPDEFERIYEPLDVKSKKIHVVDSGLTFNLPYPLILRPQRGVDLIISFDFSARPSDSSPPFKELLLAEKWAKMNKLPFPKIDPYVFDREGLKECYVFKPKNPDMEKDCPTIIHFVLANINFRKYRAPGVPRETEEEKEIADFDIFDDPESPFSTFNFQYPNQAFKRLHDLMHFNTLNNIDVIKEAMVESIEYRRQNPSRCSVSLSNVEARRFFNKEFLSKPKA
The experiment in a line: DARTS, Western blot. Type of assay: biochemical. Conditions: chondrocyte lysate; protease digestion.

The target of assay [1] is T2, STAT1 (purified recombinant, His-tagged) (Homo sapiens, UniProt P42224).
T2 construct: purified recombinant, His-tagged, RED-NHS labelled
T2 sequence (P42224 2-750): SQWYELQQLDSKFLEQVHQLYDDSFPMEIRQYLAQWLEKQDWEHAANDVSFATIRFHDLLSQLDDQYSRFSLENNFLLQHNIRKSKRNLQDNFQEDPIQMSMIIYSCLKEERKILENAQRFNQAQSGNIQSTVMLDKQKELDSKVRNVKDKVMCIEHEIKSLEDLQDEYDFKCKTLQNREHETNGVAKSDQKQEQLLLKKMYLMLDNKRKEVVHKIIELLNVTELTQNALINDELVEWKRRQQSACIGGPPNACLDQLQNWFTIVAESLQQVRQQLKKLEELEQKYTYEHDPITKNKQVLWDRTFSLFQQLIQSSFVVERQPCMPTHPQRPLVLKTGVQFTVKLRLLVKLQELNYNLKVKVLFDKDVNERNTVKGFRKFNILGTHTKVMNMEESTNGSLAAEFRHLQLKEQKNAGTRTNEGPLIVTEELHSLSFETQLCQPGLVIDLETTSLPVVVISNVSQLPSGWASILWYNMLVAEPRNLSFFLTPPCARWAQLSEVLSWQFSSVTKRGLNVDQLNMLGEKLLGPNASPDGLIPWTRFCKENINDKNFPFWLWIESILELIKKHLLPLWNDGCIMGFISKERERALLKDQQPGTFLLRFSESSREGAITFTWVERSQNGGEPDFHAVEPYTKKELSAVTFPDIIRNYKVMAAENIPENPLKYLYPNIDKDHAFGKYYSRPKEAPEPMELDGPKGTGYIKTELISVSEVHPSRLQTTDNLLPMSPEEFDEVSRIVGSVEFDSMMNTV
The experiment in a line: microscale thermophoresis. Type of assay: binding.

Assay [2] concerns the target T3, Smad2 (endogenous, human chondrocytes) (Homo sapiens, UniProt Q15796).
T3 construct: endogenous, read by Western blot
Briefly: CETSA and DARTS, Western blot. Conditions: CETSA with FFD 10 μM. Format: biochemical. (In western blotting, separated proteins are transferred to a membrane and probed.)

Assay [3] deals with T4, STAT1 (endogenous, human chondrocytes) (Homo sapiens, UniProt P42224).
T4 construct: endogenous, read by Western blot
T4 sequence (P42224 2-750): T2 sequence (P42224 2-750)
Briefly: CETSA, Western blot. Format: biochemical. Conditions: FFD 10 μM.

The term Kd denotes the equilibrium constant for the complex coming apart.

T3 sequence (Q15796 2-467): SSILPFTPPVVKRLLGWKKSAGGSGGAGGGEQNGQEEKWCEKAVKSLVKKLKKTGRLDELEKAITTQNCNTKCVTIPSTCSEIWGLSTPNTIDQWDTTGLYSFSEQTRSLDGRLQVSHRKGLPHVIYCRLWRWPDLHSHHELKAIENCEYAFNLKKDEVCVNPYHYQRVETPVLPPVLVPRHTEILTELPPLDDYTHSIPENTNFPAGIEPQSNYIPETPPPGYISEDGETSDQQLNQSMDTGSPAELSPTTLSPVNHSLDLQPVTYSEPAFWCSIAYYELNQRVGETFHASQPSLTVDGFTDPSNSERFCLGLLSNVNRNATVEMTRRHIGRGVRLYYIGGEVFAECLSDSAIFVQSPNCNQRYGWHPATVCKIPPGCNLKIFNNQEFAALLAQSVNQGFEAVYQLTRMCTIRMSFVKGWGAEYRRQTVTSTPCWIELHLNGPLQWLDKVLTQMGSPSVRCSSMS

Take `CC(C)(C(=O)O)c1ccc(C(O)CCCN2CCC(C(O)(c3ccccc3)c3ccccc3)CC2)cc1` (stereo not shown) [Fexofenadine]: the “DARTS, Western blot” value at cPLA2 is listed as “cPLA2 remained undigested by the protease following incubation with FFD”. For the same compound, in assay [1], the Kd was 3 µM. The “CETSA and DARTS, Western blot” value in assay [2] is “DARTS and CETSA experiments subsequently confirmed the interaction between FFD and Smad2”. Moreover, the “Tm with FFD (control 50.49)” value in assay [3] worked out at 60.01 °C.
